The target in data set [1] is mALDH1a2 (Mus musculus (Mouse), UniProt Q62148). Description: Aldh1a2 enzyme inhibition assay (recombinant enzyme, resorufin fluorescence). In kind it is biochemical. The text has this:
Recombinant enzyme and inhibitor added immediately before assay. Reaction rate measured by resorufin fluorescence.

The target in data set [2] is hALDH1a2 (Homo sapiens (Human), UniProt O94788). Described as above. The format is biochemical.
For data set [3], the target named is mALDH1a3 (Mus musculus (Mouse), UniProt Q9JHW9). Description: Aldh1a3 enzyme inhibition assay (recombinant enzyme, resorufin fluorescence). In kind it is biochemical. The protocol: (§1) Cells were resuspended in 10 mM […] pH 7.4, 10 mM KCl. […] Recombinant enzyme and inhibitor added immediately before assay. Reaction rate measured by resorufin fluorescence.
mALDH1a3, sequence (Q9JHW9 whole entry): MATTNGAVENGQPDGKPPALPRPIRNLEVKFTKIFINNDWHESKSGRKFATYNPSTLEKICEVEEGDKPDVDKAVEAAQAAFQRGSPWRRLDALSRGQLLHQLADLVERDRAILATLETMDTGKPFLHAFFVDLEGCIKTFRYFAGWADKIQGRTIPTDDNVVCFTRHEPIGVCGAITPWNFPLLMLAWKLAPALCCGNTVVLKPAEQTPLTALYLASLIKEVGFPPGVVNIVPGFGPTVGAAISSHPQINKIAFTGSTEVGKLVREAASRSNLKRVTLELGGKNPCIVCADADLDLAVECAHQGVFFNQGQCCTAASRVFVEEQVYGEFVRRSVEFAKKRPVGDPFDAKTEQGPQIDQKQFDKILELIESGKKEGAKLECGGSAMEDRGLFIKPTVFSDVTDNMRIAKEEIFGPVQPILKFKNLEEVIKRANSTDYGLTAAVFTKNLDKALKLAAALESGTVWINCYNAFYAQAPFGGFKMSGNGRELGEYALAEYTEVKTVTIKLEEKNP
The target of data set [4] is hALDH1a3 (Homo sapiens (Human), UniProt P47895). The data set is described as above. In kind it is biochemical. The protocol: as §1
hALDH1a3, sequence (P47895 whole entry): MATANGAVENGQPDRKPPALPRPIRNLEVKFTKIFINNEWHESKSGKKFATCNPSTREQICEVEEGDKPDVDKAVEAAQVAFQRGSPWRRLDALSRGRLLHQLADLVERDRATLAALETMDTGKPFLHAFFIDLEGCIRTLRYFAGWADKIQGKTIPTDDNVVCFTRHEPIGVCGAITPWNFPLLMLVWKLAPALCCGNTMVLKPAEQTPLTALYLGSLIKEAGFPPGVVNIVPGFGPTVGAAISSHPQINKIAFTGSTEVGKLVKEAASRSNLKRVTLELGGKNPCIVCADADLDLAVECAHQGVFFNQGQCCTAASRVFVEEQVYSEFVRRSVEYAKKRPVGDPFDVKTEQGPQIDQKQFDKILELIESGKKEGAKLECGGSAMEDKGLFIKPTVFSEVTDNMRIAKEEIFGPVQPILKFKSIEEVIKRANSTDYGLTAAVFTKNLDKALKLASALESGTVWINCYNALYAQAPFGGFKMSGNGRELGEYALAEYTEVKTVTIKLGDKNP
Data set [5] can be described thus: Pharmacokinetic profiling in mice. Conditions: male CD-1/C57BL/6 mice.

Where two headings read alike, the source gives them in different places.

mALDH1a2, sequence (Q62148 whole entry): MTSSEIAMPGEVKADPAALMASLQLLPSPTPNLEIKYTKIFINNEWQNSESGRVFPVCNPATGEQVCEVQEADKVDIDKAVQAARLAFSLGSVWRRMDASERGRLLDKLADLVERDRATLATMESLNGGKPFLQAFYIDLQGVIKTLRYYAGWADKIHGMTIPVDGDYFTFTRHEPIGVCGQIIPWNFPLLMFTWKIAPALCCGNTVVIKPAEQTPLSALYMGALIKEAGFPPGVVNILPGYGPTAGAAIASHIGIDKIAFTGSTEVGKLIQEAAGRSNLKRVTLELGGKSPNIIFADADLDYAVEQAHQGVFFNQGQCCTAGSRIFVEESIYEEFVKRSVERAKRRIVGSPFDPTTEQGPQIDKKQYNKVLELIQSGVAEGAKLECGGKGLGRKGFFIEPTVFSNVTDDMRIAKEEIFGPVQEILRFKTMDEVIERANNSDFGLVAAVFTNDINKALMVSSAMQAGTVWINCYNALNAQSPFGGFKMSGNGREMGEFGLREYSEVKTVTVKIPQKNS
hALDH1a2, sequence (O94788 whole entry): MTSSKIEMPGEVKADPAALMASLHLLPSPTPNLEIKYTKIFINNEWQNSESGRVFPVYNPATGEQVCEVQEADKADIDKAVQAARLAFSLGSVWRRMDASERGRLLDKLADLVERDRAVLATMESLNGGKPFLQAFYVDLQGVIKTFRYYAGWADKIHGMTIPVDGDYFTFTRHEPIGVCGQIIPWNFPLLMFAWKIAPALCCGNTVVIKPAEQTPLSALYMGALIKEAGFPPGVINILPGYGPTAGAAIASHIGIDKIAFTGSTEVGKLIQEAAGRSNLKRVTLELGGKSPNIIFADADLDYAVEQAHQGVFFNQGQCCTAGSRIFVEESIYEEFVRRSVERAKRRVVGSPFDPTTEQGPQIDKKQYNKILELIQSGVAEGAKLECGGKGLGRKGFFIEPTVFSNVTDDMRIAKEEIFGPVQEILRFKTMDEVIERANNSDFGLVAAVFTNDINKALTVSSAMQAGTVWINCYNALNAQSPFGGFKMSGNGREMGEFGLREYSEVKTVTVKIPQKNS

As a reminder, the IC50 is the concentration that gives 50% inhibition. Consider “2-ethyl-N-(8-methyl-2-oxo-3,4-dihydro-1H-quinolin-6-yl) piperazine-1-carboxamide [Compound 192]”, for which the IC50 in data set [1] was more than 10000 nM; in data set [2] it was more than 10000 nM; in data set [3] (read-out: mAldh1a3 IC50), more than 5000 nM; in data set [4] (read-out: hAldh1a3 IC50), more than 5000 nM.
As to `CCc1cnccc1C(=O)Nc1cc2c(c3ccncc13)NC(=O)CC2` [Compound 145, 3-ethyl-N-(2-oxo-3,4-dihydro-1H-1,8-phenanthrolin-6-yl)pyridine-4-carboxamide], the concentration for half-maximal inhibition (IC50) in data set [1] was 172 nM; in data set [2], 120 nM; in data set [3] (read-out: mAldh1a3 IC50), less than 100 nM; in data set [4] (read-out: hAldh1a3 IC50) it was less than 100 nM.
Turning to `CCc1ccccc1C(=O)Nc1cc2c(cc1F)NC(=O)CC2` [Compound 4], the “plasma half-life, IV bolus dosing” value in data set [5] (1 mg/kg intravenous) came to 1.22 h. The “plasma half-life, PO oral gavage dosing” value in data set [5] (10 mg/kg oral gavage) was found to be 1.70 h. This compound showed an oral bioavailability in data set [5] (10 mg/kg oral gavage, 1 mg/kg intravenous) of 62.5%.
As for `Cc1cc(NC(=O)c2ccncc2CC2CC2)cc2c1NC(=O)CC2` [Compound 149, 3-(cyclopropylmethyl)-N-(8-methyl-2-oxo-3,4-dihydro-1H-quinolin-6-yl)pyridine-4-carboxamide], the IC50 is 118 nM in data set [1], less than 100 nM in data set [3] (read-out: mAldh1a3 IC50) and less than 100 nM in data set [4] (read-out: hAldh1a3 IC50).
As for `CCc1cnccc1C(=O)Nc1cc2c(c(F)c1F)NC(=O)CC2` [Compound 143, N-(7,8-difluoro-2-oxo-3,4-dihydro-1H-quinolin-6-yl)-3-ethyl-pyridine-4-carboxamide], the 50% inhibitory concentration (IC50) in data set [1] was 594 nM; in data set [2], 674 nM; in data set [3] (read-out: mAldh1a3 IC50), less than 100 nM; in data set [4] (read-out: hAldh1a3 IC50) it was less than 100 nM.
`CCc1cnc(Cl)cc1C(=O)Nc1ccc2c(c1)CCC(=O)N2` [Compound 77]: the 50% inhibitory concentration (IC50) stood at 333 nM in data set [1] and 415 nM in data set [2].
For `Cc1cc(Nc2cnc3ccccc3n2)cc2c1NC(=O)C(C)(C)C2` [Compound 161, 3,3,8-trimethyl-6-(quinoxalin-2-ylamino)-1,4-dihydroquinolin-2-one], the concentration for half-maximal inhibition (IC50) in data set [1] was 114 nM; in data set [2] it was 89 nM; in data set [3] (read-out: mAldh1a3 IC50), 250 to 1000 nM; in data set [4] (read-out: hAldh1a3 IC50), more than 5000 nM.
For the compound `CCc1cnccc1C(=O)Nc1cc2c(cc1C)NC(=O)CC2` [Compound 83], the IC50 in data set [1] is 3500 nM; in data set [2] it was 9000 nM; in data set [3] (read-out: mAldh1a3 IC50) it was 1000 to 5000 nM; in data set [4] (read-out: hAldh1a3 IC50), 100 to 250 nM.
As for `CCc1cnccc1C(=O)Nc1ccc2c(c1)CCC(=O)N2` [Compound 9], the IC50 in data set [1] is 1110 nM; in data set [2], 587 nM; in data set [3] (read-out: mAldh1a3 IC50) it was 250 to 1000 nM; in data set [4] (read-out: hAldh1a3 IC50) it was less than 100 nM.
For `CCc1cnc(Cl)cc1C(=O)Nc1cc(C)c2c(c1)CCC(=O)N2` [Compound 150, 2-chloro-5-ethyl-N-(8-methyl-2-oxo-3,4-dihydro-1H-quinolin-6-yl)pyridine-4-carboxamide], the IC50 in data set [1] was 131 nM; in data set [2], 121 nM; in data set [3] (read-out: mAldh1a3 IC50) it was less than 100 nM; in data set [4] (read-out: hAldh1a3 IC50) it was less than 100 nM.
`O=C1CCc2cc(NC(=O)c3ccncc3CC3CC3)ccc2N1` [Compound 59]: the half-inhibitory concentration (IC50) is 487 nM in data set [1], 530 nM in data set [2], less than 100 nM in data set [3] (read-out: mAldh1a3 IC50) and less than 100 nM in data set [4] (read-out: hAldh1a3 IC50).
Consider `CCc1cnccc1C(=O)Nc1cc(Cl)c2c(c1)CCC(=O)N2` [Compound 142, N-(8-chloro-2-oxo-3,4-dihydro-1H-quinolin-6-yl)-3-ethyl-pyridine-4-carboxamide], for which the IC50 in data set [1] was 63 nM; in data set [2], 57 nM; in data set [3] (read-out: mAldh1a3 IC50), less than 100 nM; in data set [4] (read-out: hAldh1a3 IC50), less than 100 nM.
With `CCc1nnccc1C(=O)Nc1cc(C)c2c(c1)CCC(=O)N2` [Compound 166, 3-ethyl-N-(8-methyl-2-oxo-3,4-dihydro-1H-quinolin-6-yl) pyridazine-4-carboxamide], the IC50 in data set [1] was more than 10000 nM; in data set [2], 1600 nM; in data set [3] (read-out: mAldh1a3 IC50), 250 to 1000 nM; in data set [4] (read-out: hAldh1a3 IC50), less than 100 nM.
On the same counts, the results for `CCc1cnccc1C(=O)Nc1cc2c(c(C)c1F)NC(=O)CC2` [Compound 146, 3-ethyl-N-(7-fluoro-8-methyl-2-oxo-3,4-dihydro-1H-quinolin-6-yl)pyridine-4-carboxamide] are 405 nM, 356 nM, less than 100 nM and less than 100 nM.
Take `CCc1cnccc1C(=O)Nc1cc2c(cn1)NC(=O)CC2` [Compound 159, 3-ethyl-N-(2-oxo-3,4-dihydro-1H-1,7-naphthyridin-6-yl)pyridine-4-carboxamide]: the IC50 was 3180 nM in data set [1], 2750 nM in data set [2], 250 to 1000 nM in data set [3] (read-out: mAldh1a3 IC50) and 250 to 1000 nM in data set [4] (read-out: hAldh1a3 IC50).
`CCc1cnccc1C(=O)Nc1cc2c(c(C)c1C)NC(=O)CC2` [Compound 147, N-(7,8-dimethyl-2-oxo-3,4-dihydro-1H-quinolin-6-yl)-3-ethyl-pyridine-4-carboxamide]: the half-inhibitory concentration (IC50) in data set [1] was 358 nM; in data set [2], 431 nM; in data set [3] (read-out: mAldh1a3 IC50), 250 to 1000 nM; in data set [4] (read-out: hAldh1a3 IC50), 100 to 250 nM.
On the same counts, the results for `CCc1cnccc1C(=O)Nc1cc(C#N)c2c(c1)CCC(=O)N2` [Compound 139, N-(8-cyano-2-oxo-3,4-dihydro-1H-quinolin-6-yl)-3-ethyl-pyridine-4-carboxamide] are 1480 nM, 10000 nM, less than 100 nM and 100 to 250 nM.
On to `CCc1cnccc1C(=O)Nc1cc2c(cc1F)NC(=O)CC2` [Compound 1], for which the IC50 was 3330 nM in data set [1], 3330 nM in data set [2], 100 to 250 nM in data set [3] and 100 to 250 nM in data set [4].
Take `Cc1cc(NC(=O)c2ccnc3c2CCO3)cc2c1NC(=O)CC2` [Compound 152, N-(8-methyl-2-oxo-3,4-dihydro-1H-quinolin-6-yl)-2,3-dihydrofuro[2,3-b]pyridine-4-carboxamide]: the IC50 is 824 nM in data set [1], 807 nM in data set [2], 250 to 1000 nM in data set [3] (read-out: mAldh1a3 IC50) and 1000 to 5000 nM in data set [4] (read-out: hAldh1a3 IC50).
Turning to `O=C1CCc2cc(NC(=O)c3ccncc3CC(F)(F)F)ccc2N1` [Compound 53], the IC50 was 494 nM in data set [1], 374 nM in data set [2], less than 100 nM in data set [3] (read-out: mAldh1a3 IC50) and less than 100 nM in data set [4] (read-out: hAldh1a3 IC50).
Regarding `CCc1cnccc1C(=O)Nc1cnc2c(c1)CCC(=O)N2` [Compound 154, 3-ethyl-N-(7-oxo-6,8-dihydro-5H-1,8-naphthyridin-3-yl)pyridine-4-carboxamide], the IC50 is 8170 nM in data set [1], 4750 nM in data set [2], 250 to 1000 nM in data set [3] (read-out: mAldh1a3 IC50) and 1000 to 5000 nM in data set [4] (read-out: hAldh1a3 IC50).
On the same counts, the results for `O=C1CCc2cc(NC(=O)c3ccncc3CC(F)(F)F)c(F)cc2N1` [Compound 82] are 941 nM, 620 nM, 100 to 250 nM and less than 100 nM.
For `Cc1cc(NC(=O)c2ccncc2CC2CCC2)cc2c1NC(=O)CC2` [Compound 155], the IC50 in data set [1] was 1290 nM; in data set [2] it was 835 nM; in data set [3] (read-out: mAldh1a3 IC50), 1000 to 5000 nM; in data set [4] (read-out: hAldh1a3 IC50), 250 to 1000 nM.
Consider `O=C1CCc2cc(NC(=O)c3ccncc3CC(F)(F)F)cc(Cl)c2N1` [Compound 168, N-(8-chloro-2-oxo-3,4-dihydro-1H-quinolin-6-yl)-3-(2,2,2-trifluoroethyl) pyridine-4-carboxamide], for which the 50% inhibitory concentration (IC50) is 92 nM in data set [1] and 70 nM in data set [2].
Consider `Cc1cc(Nc2ncc3ccccc3n2)cc2c1NC(=O)C(C)(C)C2` [Compound 160, 3,3,8-trimethyl-6-(quinazolin-2-ylamino)-1,4-dihydroquinolin-2-one], for which the IC50 was 177 nM in data set [1], 163 nM in data set [2], more than 5000 nM in data set [3] (read-out: mAldh1a3 IC50) and more than 5000 nM in data set [4] (read-out: hAldh1a3 IC50).
For `CCc1cnccc1C(=O)Nc1cc(CC)c2c(c1)CCC(=O)N2` [Compound 144, 3-ethyl-N-(8-ethyl-2-oxo-3,4-dihydro-1H-quinolin-6-yl)pyridine-4-carboxamide], the half-inhibitory concentration (IC50) in data set [1] is 462 nM; in data set [2], 304 nM; in data set [3] (read-out: mAldh1a3 IC50), less than 100 nM; in data set [4] (read-out: hAldh1a3 IC50) it was less than 100 nM.
On to `CCc1cnccc1C(=O)Nc1cc(F)c2c(c1)CCC(=O)N2` [Compound 141, 3-ethyl-N-(8-fluoro-2-oxo-3,4-dihydro-1H-quinolin-6-yl)pyridine-4-carboxamide], for which the IC50 is 180 nM in data set [1], 289 nM in data set [2], less than 100 nM in data set [3] (read-out: mAldh1a3 IC50) and less than 100 nM in data set [4] (read-out: hAldh1a3 IC50).
Take `CCn1cncc1C(=O)Nc1ccc2c(c1)CCC(=O)N2` [Compound 49]: the half-maximal inhibitory concentration (IC50) in data set [1] is more than 10000 nM; in data set [2], more than 10000 nM; in data set [3] (read-out: mAldh1a3 IC50) it was more than 5000 nM; in data set [4] (read-out: hAldh1a3 IC50) it was more than 5000 nM.
In the case of `CCC1COCCN1C(=O)Nc1cc(C)c2c(c1)CCC(=O)N2` (racemic) [Compound 193], the IC50 in data set [3] (read-out: mAldh1a3 IC50) and in data set [4] (read-out: hAldh1a3 IC50) was more than 5000 nM in each case.
For `O=C1CCc2cc(NC(=O)c3ccncc3CC(F)(F)F)c(F)c(F)c2N1` [Compound 167, N-(7,8-difluoro-2-oxo-3,4-dihydro-1H-quinolin-6-yl)-3-(2,2,2-trifluoroethyl) pyridine-4-carboxamide], the IC50 was 815 nM in data set [1], 754 nM in data set [2], less than 100 nM in data set [3] (read-out: mAldh1a3 IC50) and less than 100 nM in data set [4] (read-out: hAldh1a3 IC50).
For `Cc1cc(NC(=O)c2ccnc3c2CCN3)cc2c1NC(=O)CC2` [Compound 153, N-(8-methyl-2-oxo-3,4-dihydro-1H-quinolin-6-yl)-2,3-dihydro-1H-pyrrolo[2,3-b]pyridine-4-carboxamide], the concentration for half-maximal inhibition (IC50) was 362 nM in data set [1], 492 nM in data set [2], 250 to 1000 nM in data set [3] (read-out: mAldh1a3 IC50) and 1000 to 5000 nM in data set [4] (read-out: hAldh1a3 IC50).

The values above are taken from patent US12054475B2, “Substituted heterocycles as aldehyde dehydrogenase inhibitors” (KayoThera Inc., priority 2021, dated 2024).
